Values of other authors in patent publication US8062870B2, “Enantiomerically resolving acyloxyalkyl thiocarbonates used in synthesizing acyloxyalkyl carbamate prodrugs” (XenoPort, Inc., priority 2008, dated 2011).

Settings: dosed either orally or directly into the colon of a mammal

| Structure (SMILES) | bioavailability as pregabalin |
| --- | --- |
| CC(C)C[C@H](CNC(=O)OC(C)OC(=O)c1ccccc1)CC(=O)O (some centres unmarked) | high bioavailability |
| CC(C)C[C@H](CNC(=O)OC(OC(=O)C(C)C)C(C)C)CC(=O)O (some centres unmarked) | high bioavailability |
